Entries after “also recorded” stand apart in the source; their conditions may differ.
Legend:
ex vivo rat aortas [1] = assay: MK2i transfer from coated balloons to ex vivo rat aorta (confocal fluorescence, tissue lysate fluorescence); assay type: in vitro ADME
Method: Aorta treatment: Harvested aortas were damaged with an angioplasty balloon prior to treatment (3×, 15 seconds each, 25% overstretch). Coated balloons were then inserted into the aorta and pressurized for 3 minutes in DMEM (+HEPES, +L-glutamine, +3% FBS, +1% Antibiotic/Antimycotic), with deflation and reinflation at each minute mark to allow for maximum release and tissue transfer. After 3 minutes, the balloon was deflated and removed. The treated artery was then washed briefly with DMEM to remove excess MK2i and then processed for further experimentation or data collection. […]
Delivery visualization and quantification: Immediately after aorta treatment, samples were placed into OCT and frozen for cryosectioning. […] Then, total intensity of MK2i-568 within the arterial wall was calculated by subtracting the intensity of the inside segment from the intensity of the total segment. […]
MK2i Delivery and Retention Quantification: Tissue lysates prepped for western blotting were measured for presence of fluorescently labeled MK2i to quantify tissue delivery and retention. Tissue lysate fluorescence was measured on a TECAN Infinite M1000 Pro plate reader and compared to a standard curve of fluorescent MK2i to calculate tissue MK2i concentration. […]

[2] = tested on: cells of ex vivo rat aortas (isolated SMCs); assay: Cellular uptake of fluorescent MK2i in treated rat aortas by flow cytometry; assay type: cell-based; details: flow cytometry 1 hour after treatment
Method: Flow Cytometry: After aorta treatment, samples were incubated in DMEM (+HEPES, +L-glutamine, +3% FBS, +1% Antibiotic/Antimycotic) for 1 hour to allow for cell uptake. The aortas were subsequently transferred to 500 μL of cold PBS+1% FBS and cut with scissors into small (˜1 mm) sized pieces. Digestion media in DMEM was then added to the PBS/tissue tube (500 μL) to achieve a final enzyme concentration of 0.7 mg/mL liberase, 4 mg/mL collagenase, and 0.2 mg/mL DNase and the tubes were placed in a 37° C. incubator on a shaker for ˜90 minutes or until digestion was apparent. After incubation, the samples were filtered through a 70 μm cell strainer and centrifuged at 500 g for 8 minutes. […] Cells were read for fluorescence on a Guava easyCyte HT and the resulting data was processed in FlowJo.
MK2i tissue transfer and cell uptake: Coated balloons (6 layers, 100 μM MK2i, 10 μM PPAA) were inflated in ex vivo rat aortas for 3 minutes and samples were cryosectioned to visualize fluorescent MK2i delivery (FIG. 9A, FIG. 9B, and FIG. 9C). ROIs were drawn around the vessel wall and total MK2i fluorescence was normalized to vessel wall cross sectional area. […] Cellular uptake was also measured with flow cytometry, quantifying cellular association of fluorescent MK2i within the treated tissue. […]

[3] = Balloon loading and release quantification (3 min PBS soak, DMSO strip, fluorescence); assay type: physicochemical
Method: Balloon loading and release quantification: Angioplasty balloons (2.5 mm×20 mm) were coated with PPAA and MK2i-568 and then soaked in PBS with calcium and magnesium for 3 minutes to measure balloon release. The balloons were then soaked again in DMSO under sonication for 3 minutes to remove any remaining MK2i layers. The fluorescence of the PBS and DMSO solutions was measured on a TECAN Infinite M1000 Pro plate reader and compared to a standard curve of MK2i-568 in PBS and DMSO, respectively.
Balloon Loading and Release: Balloon release and total loading was quantified for different lactosucrose (LS) coating conditions. […] The fluorescence of these two solutions was then measured and used to quantify MK2i concentration (FIG. 5B and FIG. 5C).
Increasing balloon loading and release: To increase the amount of MK2i loaded onto and released from the balloons, two strategies were compared. […] Loading and release were measured as before—3 min wash in PBS followed by sonication in DMSO. The solution fluorescence was measured to determine loading and release.
Balloon loading and release quantification: Angioplasty balloons (2.5 mm×20 mm, Maverick OTW, Boston Scientific) were coated with PPAA and MK2i-568 and then soaked in PBS with calcium and magnesium for 3 minutes to measure balloon release. […]

ex vivo rat aortas [4] = assay: Immunofluorescence of balloon damaged rat aortas after 7 d in flow loop bioreactor; assay type: cell-based; details: 7 d after balloon injury

Molecule | MK2i transfer to the tissue (fluorescence in vessel wall) (ex vivo rat aortas [1]; immediately after 3 min balloon inflation) | depth of MK2i delivery into the vessel wall (intensity profile) (ex vivo rat aortas [1]; immediately after balloon inflation) | cellular / intracellular uptake of MK2i [2] | MK2i release from balloon ([3]; 3 minutes in PBS) | MK2i loading (comparison in words) ([3]; between coating conditions) | MYH expression (ex vivo rat aortas [4]) | SM22 expression (ex vivo rat aortas [4])
OC[C@H]1O[C@@H](O[C@H]2[C@H](O)[C@@H](O)[C@@H](O[C@]3(CO)O[C@H](CO)[C@@H](O)[C@@H]3O)O[C@@H]2CO)[C@H](O)[C@@H](O)[C@H]1O [LS, lactosucrose] | benefited; also recorded: increased MK2i transfer to the tissue | modest effect on increasing the depth of delivery | benefited; also recorded: significantly increased the intracellular uptake | did not yield any differences | did not yield any differences | – | –
MAPKAP Kinase II inhibitory peptide [MK2i] | – | – | – | – | – | preserving expression | preserving expression
